# Results reported in US8673914B2, “Use of phosphodiesterase inhibitors for treating multidrug resistance” (St. John's University, priority 2011, dated 2014).
# Read-outs that look alike come from different tables or passages of the source.
# Assays:
# [1] = In vitro transport assay, membrane vesicles; type: biochemical; details: HEK293/pcDNA3.1 vesicles
# Description: Transport assays were carried out using the rapid filtration method as described in Chen et al. (2003) Cancer Res. 63:4048-54. […] Reactions were stopped by the addition of 3 mL of ice-cold stop solution (0.25 M sucrose, 100 mM NaCl, and 10 mM Tris-HCl, pH 7.4). During the rapid filtration step, samples were passed through 0.22 μm GVWP filters (Millipore) presoaked in the stop solution. The filters were washed three times with 3 mL of ice-cold stop solution. Radioactivity was measured by liquid scintillation counting.
# [2] = system: parental cells; experiment: [^3H]-mitoxantrone accumulation; type: cell-based
# Description: (§1) After washing 3 times with ice-cold PBS, the cells were trypsinized and lysed in 10 mM lysis buffer (pH 7.4, containing 1% Triton X-100 and 0.2% SDS). Each sample was placed in scintillation fluid and radioactivity was measured in a Packard TRI-CARB 1900CA liquid scintillation analyzer from Packard Instrument Company, Inc.
# [3] = system: ABCG2-482-R2 (ABCG2); experiment: MTT cytotoxicity/reversal assay (Example 1); details: +10 μM reversal agent
# Description: (§2) The KB-C2 and KB-3-1 were kindly provided by Dr. Akiyama (Kagoshima University, Japan). HEK293-pcDNA3.1 and wild-type HEK/ABCG2 transfected cells were established by selection with G418 after transfecting HEK293 with either (1) empty pcDNA3.1 vector or (2) pcDNA3.1 vector containing full length of ABCG2 coding arginine (R) at amino acid position 482, and were then cultured in a medium with 2 mg/ml of G418 (ABCG2-482-R2 cells). Similarly, the HEK/MRP1 (ABCC1) and HEK/ABCB1 cells were generated by transfecting the HEK293 cells with either the MRP1 expression vector or the ABCB1 expression vector. All of the cell lines were grown in Dulbecco's modified Eagle's medium (DMEM) supplemented with 10% bovine serum, 100 units/ml penicillin, and […] streptomycin in a humidified incubator containing 5% CO2 at 37° C.
# (§3) The MTT assay was used to assess cytotoxicity. The cultured cells were harvested with trypsin and resuspended in a final concentration of 4×10^3 cells/well for KB-3-1; 7.5×10^3 cells/well for KB-C2; and 8×10^3 for all of the other cell lines used in this study. Cells were seeded evenly in 96-well multiplates. […] After 68 h of incubation, 20 μl of the MTT solution (4 mg/ml) was added to each well, and the plate was further incubated for 4 h at 37° C., allowing viable cells to convert the yellow-colored MTT into dark-blue formazan crystals. Subsequently, the medium was discarded, and 100 μl of DMSO was added into each well to dissolve the formazan crystals, generating purple color. The absorbance was determined at 570 nm by an OPSYS Microplate Reader from DYNEX Technologies, Inc. (Chantilly, Va.). […] The degree of the reversal of multidrug resistance (MDR) was calculated by dividing the IC50 of an anticancer drug, e.g., an antineoplastic or chemotherapeutic drug (agent, compound), in a cell type in the absence of a reversal agent by the IC50 of the anticancer drug in the same cell type in the presence of the reversal agent. The IC50 values were calculated from survival curves using the Bliss method.
# [4] = biological target: T1, ABCG2 (Homo sapiens, UniProt Q9UNQ0); experiment: Photoaffinity labeling with [^125I]-IAAP (Example 2); type: binding; design: endogenous in cells; host or cells: MCF7/FLV1000 (MCF-7/Flv1000) crude membranes; details: 10 μM
# Description: The photoaffinity labeling of ABCB1 and ABCG2 with [^125I]-IAAP was conducted as described in Sauna et al., supra. The crude membranes from HIGH FIVE™ insect cells expressing ABCB1 and MCF7/FLV1000 cells expressing R482 ABCG2 (50 μg of protein) were incubated at room temperature with different concentrations of drugs in 50 mM Tris-HCl (pH 7.5) with [^125I]-IAAP (5-7 nM) for 5 min under subdued light. […] ABCB1 and ABCG2 were immunoprecipitated using BXP-21 antibodies as described in Shukla et al., supra. Both ABCB1 and ABCG2 samples were subjected to SDS-PAGE in a 7% Trisacetate NuPAGE gel, the gel was dried, and exposed to Bio-Max MR film (Eastman Kodak Co.) at −70° C. for 8 to 12 h. The radioactivity incorporated into the ABCB1 or ABCG2 band was quantified using the STORM 860 Phosphorlmager System and ImageQuaNT (Molecular Dynamics).
# [5] = system: HEK293/pcDNA3.1; experiment: MTT cytotoxicity/reversal assay (Example 1); type: cell-based; details: for fold reversal, vincristine: alone
# Description: as §2, §3
# [6] = system: any of the cell lines used; experiment: MTT assay, sildenafil alone; type: cell-based; details: concentrations of up to 50 μM
# Description: Cells in 96-well plates were preincubated with or without the reversal agents for 1 h and then different concentrations of chemotherapeutic drugs were added into designated wells. After 68 h of incubation, MTT solution (4 mg/mL) was added to each well, and the plate was further incubated for 4 h, allowing viable cells to change the yellow-colored MTT into dark-blue formazan crystals. Subsequently the medium was discarded, and […] of DMSO was added into each well to dissolve the formazan crystals. The absorbance was determined at 570 nm by an OPSYS MR Microplate Reader from DYNEX Technologies, Inc.
# [7] = system: HEK/MRP7 cells; experiment: [^3H]-paclitaxel efflux (Example 4); type: cell-based; details: 5 μM PDE5 inhibitor
# Description: (§4) The effect of PDE5 inhibitors on the intracellular accumulation of paclitaxel in HEK293-pcDNA3.1 and HEK/MRP7 cells was measured using [^3H]-paclitaxel. […] For efflux studies, the cells were treated the same as in the drug accumulation study, and then washed three times with ice-cold PBS, and suspended in fresh medium with or without PDE5 inhibitors. Aliquots were evenly collected at various time points (0, 30, 60, and 120 min). Samples from both accumulation and efflux experiments were washed with ice-cold PBS three times and placed in scintillation fluid, and the radioactivity was measured in a Packard TRI-CARB® 1900CA liquid scintillation analyzer from Packard Instrument Company, Inc. (Downers Grove, Ill.).
# [8] = system: KB-3-1 cells; experiment: [^3H]-paclitaxel accumulation (Example 2); type: cell-based, human; details: parental KB-3-1
# Description: as §1
# [9] = system: KB-C2 and KB-V1 cells (ABCB1); experiment: [^3H]-paclitaxel accumulation (Example 2); type: cell-based, human; details: 10 μM
# Description: as §1, with “Cells in 24-well plates were preincubated with or without the reversal agents for 1 h at 37° C., then incubated with 0.1 μM [^3H]-paclitaxel or 0.2 μM [^3H]-mitoxantrone for 2 h in the presence or absence of the reversal agents at 37° C. After” for “After”
# [10] = biological target: T2, ABCB1 (Homo sapiens, UniProt P08183); experiment: Vi-sensitive ATPase assay (Example 2); type: biochemical; details: read-out: concentration required for 50% stimulation of ATPase activity
# T2 construct: made in house; host or cells: High Five insect cells (membrane vesicles / crude membranes)
# Description: (§5) The vanadate (Vi)-sensitive ATPase activity of ABCB1 or ABCG2 in the membrane vesicles of HIGH FIVE™ insect cells was measured as described in Ambudkar et al., supra. The membrane vesicles (100 μg of protein/mL) were incubated in ATPase assay buffer (50 mM MES, pH 6.8, 50 mM KCl, 5 mM sodium azide, 2 mM EGTA, 2 mM dithiothreitol, 1 mM ouabain, and 10 mM MgCl2) with or without 0.3 mM vanadate at 37° C. for 5 min, and then incubated with different concentrations of drugs at 37° C. for 3 min. The ATPase reaction was […] by the addition of 5 mM Mg-ATP. After incubating at 37° C. for 20 min, the reactions were stopped by adding 0.1 mL of 5% SDS solution. The liberated inorganic phosphate was measured as described in Shukla et al. (2006) Biochemistry 45:8940-51.
# [11] = biological target: T1, ABCG2; experiment: Vi-sensitive ATPase assay (Example 2); type: biochemical; details: read-out: concentration required for 50% stimulation of ATPase activity
# Description: as §5
# [12] = system: KB-C2 xenografts; experiment: Mouse tumor xenografts; type: in vivo, mice; details: sildenafil 75 mg/kg p.o. + paclitaxel 18 mg/kg i.p. vs paclitaxel alone
# Text: Six-to-eight-week old male athymic NCR nude mice from Taconic (Hudson, N.Y.) were used for all xenografts. The mice were provided with sterilized food and water. The animal protocol was reviewed and approved by the Institutional Animal Care and Use Committee at St. John's University. […] When the tumors reached 0.5 cm, the mice were randomized into four groups, six mice per group: […] […] Mice were euthanized when the tumor weight exceeded 1 gram in the control group, and the tumors were excised and weighed.
# [13] = system: MRP7 localization in HEK/MRP7 cells; experiment: Immunofluorescence of MRP7; type: cell-based; details: 5 μM; 72 h
# Description: HEK/MRP7 cells (1×10^4) were seeded in 24 well plates and cultured overnight. […] Cells were washed with PBS and fixed with 4% paraformaldehyde for 15 min at room temperature and then rinsed with PBS three times. Nonspecific reaction was blocked with 1% BSA for 1 h at room temperature. A polyclonal antibody D19 against MRP7 (1:200) was added and incubated overnight. […] DAPI was used for nuclear staining. Immunofluorescent images were taken with an inverted microscope (model IX70; Olympus, Center Valley, Pa.) with IX-FLA fluorescence and CCD camera.
# [14] = system: HEK/MRP7 cells; experiment: [^3H]-paclitaxel accumulation (Example 4); type: cell-based; details: 5 μM, 2 h
# Description: as §4
# [15] = system: ABCG2-overexpressing cell lines; experiment: [^3H]-mitoxantrone accumulation; type: cell-based; details: 10 or 50 μM
# Description: as §1, with “Cells in 24-well plates were preincubated with or without the reversal agents for 1 h at 37° C., then incubated with 0.1 μM [^3H]-paclitaxel or 0.2 μM [^3H]-mitoxantrone for 2 h in the presence or absence of the reversal agents at 37° C. After” for “After”
# [16] = system: cells expressing wild-type or mutant ABCG2; experiment: BODIPY-prazosin flow cytometric assay; type: cell-based; details: 50 μM; weaker than FTC at […]
# Description: Flow cytometric assays were carried out as follows. […] Cells were then washed once in cold complete medium and then incubated for another 1 h at 37° C. in substrate-free media with or without the same described concentrations of the inhibitors to generate the efflux histograms. Subsequently, cells were washed twice with cold DPBS (Dulbecco's PBS) and placed on ice in a dark environment until ready for analysis. […] For all samples, at least 10,000 events were collected. Cell debris was eliminated by gating on forward versus side scatter, and dead cells were excluded on the basis of propidium iodide staining.
# [17] = MTT cytotoxicity/reversal assay (Example 1); type: cell-based; details: human; HEK/MRP1; alone; read-out: IC50 of vincristine
# Description: (§6) The KB-C2 and KB-3-1 were kindly provided by Dr. Akiyama (Kagoshima University, Japan). […] Similarly, the HEK/MRP1 (ABCC1) and HEK/ABCB1 cells were generated by transfecting the HEK293 cells with either the MRP1 expression vector or the ABCB1 expression vector. All of the cell lines were grown in Dulbecco's modified Eagle's medium (DMEM) supplemented with 10% bovine serum, 100 units/ml penicillin, and […] streptomycin in a humidified incubator containing 5% CO2 at 37° C.
# as §3
# [18] = system: HEK/MRP1 (ABCC1); experiment: MTT cytotoxicity/reversal assay (Example 1); type: cell-based; details: alone
# Description: as §6, §3
# [19] = MTT cytotoxicity/reversal assay (Example 1); details: human
# Description: as §6, §3
# [20] = system: HEK/ABCB1 (ABCB1); experiment: MTT cytotoxicity/reversal assay (Example 1); details: HEK/ABCB1; alone
# Description: as §6, §3
# T1 sequence (Q9UNQ0 whole entry): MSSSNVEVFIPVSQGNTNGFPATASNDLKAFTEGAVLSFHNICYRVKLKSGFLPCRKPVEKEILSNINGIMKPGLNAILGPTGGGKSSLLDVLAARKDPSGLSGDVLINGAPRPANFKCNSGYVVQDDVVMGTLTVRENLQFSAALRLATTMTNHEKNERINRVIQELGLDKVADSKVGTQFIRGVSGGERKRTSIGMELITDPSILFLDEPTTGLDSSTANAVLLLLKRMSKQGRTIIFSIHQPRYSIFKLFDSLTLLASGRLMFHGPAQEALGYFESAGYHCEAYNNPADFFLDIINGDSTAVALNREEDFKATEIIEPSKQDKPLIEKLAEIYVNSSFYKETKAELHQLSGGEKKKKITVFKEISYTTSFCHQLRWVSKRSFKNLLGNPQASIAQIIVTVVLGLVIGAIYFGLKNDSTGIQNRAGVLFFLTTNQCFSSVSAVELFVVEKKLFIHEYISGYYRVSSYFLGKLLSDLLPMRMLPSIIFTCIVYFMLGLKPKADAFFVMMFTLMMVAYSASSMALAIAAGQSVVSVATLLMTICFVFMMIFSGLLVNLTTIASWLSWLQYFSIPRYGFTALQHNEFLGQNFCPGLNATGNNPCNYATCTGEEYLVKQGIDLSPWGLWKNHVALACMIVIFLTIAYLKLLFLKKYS
# T2 sequence (P08183 whole entry): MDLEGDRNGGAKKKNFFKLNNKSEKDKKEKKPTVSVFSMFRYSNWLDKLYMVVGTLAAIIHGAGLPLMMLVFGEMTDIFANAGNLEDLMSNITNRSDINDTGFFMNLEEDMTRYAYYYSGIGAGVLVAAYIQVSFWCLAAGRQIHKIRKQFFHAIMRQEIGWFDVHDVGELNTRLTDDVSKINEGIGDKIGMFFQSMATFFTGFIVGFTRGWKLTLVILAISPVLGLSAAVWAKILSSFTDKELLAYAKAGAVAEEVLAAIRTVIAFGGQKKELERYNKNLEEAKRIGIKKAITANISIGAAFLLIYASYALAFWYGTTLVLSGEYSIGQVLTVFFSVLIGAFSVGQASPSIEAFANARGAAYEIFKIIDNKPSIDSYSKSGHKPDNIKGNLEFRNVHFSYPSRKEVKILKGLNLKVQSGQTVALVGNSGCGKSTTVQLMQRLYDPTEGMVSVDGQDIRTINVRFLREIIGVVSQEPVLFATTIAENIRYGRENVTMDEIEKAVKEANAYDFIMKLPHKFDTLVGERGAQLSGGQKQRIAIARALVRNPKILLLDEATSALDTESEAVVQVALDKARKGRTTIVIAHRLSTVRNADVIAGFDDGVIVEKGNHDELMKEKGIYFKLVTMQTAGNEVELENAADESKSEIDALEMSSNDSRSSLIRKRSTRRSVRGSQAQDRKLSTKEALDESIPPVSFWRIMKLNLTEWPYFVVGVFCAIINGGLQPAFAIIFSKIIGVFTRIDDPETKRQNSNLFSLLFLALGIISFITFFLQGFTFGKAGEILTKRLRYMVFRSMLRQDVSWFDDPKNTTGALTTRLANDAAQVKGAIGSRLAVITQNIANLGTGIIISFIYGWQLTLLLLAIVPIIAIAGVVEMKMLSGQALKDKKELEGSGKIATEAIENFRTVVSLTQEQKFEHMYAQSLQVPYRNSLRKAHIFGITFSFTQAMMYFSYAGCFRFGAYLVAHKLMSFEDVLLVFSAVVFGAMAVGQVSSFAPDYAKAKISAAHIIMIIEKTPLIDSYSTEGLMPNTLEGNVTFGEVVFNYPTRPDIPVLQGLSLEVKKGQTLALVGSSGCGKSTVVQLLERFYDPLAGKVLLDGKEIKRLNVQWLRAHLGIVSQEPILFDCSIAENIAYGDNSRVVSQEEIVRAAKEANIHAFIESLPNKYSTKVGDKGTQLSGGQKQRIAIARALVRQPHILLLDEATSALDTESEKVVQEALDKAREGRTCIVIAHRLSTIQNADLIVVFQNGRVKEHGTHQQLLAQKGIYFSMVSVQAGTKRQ
compound,measurement,setting,value
"COc1ccc2c3c([nH]c2c1)[C@H](C=C(C)C)N1C(=O)[C@@H]2CCCN2C(=O)[C@@H]1C3 [FTC, Fumitremorgin C]",uptake rates of methotrexate and E217βG,[1],moderately decreased the uptake rates
same,intracellular levels of [^3H]-mitoxantrone,[2],Neither sildenafil nor FTC affected the intracellular levels
same,"fold reversal, SN-38",[3],(3.84)
same,inhibition of [^125I]-IAAP photolabeling,[4],about 40%
same,"fold reversal, SN-38","[5]; HEK293/pcDNA3.1, +10 μM reversal agent",(1.13)
"CCCc1nn(C)c2c(=O)nc(-c3cc(S(=O)(=O)N4CCN(C)CC4)ccc3OCC)[nH]c12 [Sildenafil, sildenafil]",growth inhibition by sildenafil alone,[6],did not inhibit the growth of any of the cell lines used
same,percentage of intracellular [^3H]-paclitaxel,[7]; 30 min,90.62%
same,percentage of intracellular [^3H]-paclitaxel,[7]; 60 min,82.14%
same,percentage of intracellular [^3H]-paclitaxel,[7]; 120 min,62.35%
same,intracellular levels of [^3H]-paclitaxel,[8],Neither sildenafil nor verapamil altered the intracellular levels
same,intracellular level of [^3H]-paclitaxel,[9],significantly increased the intracellular level
same,intracellular levels of [^3H]-mitoxantrone,[2],Neither sildenafil nor FTC affected the intracellular levels
same,EC50,[10],5000 to 10000 nM
same,EC50,[11],250 to 500 nM
same,tumor weight and volume,[12],significant reduction in tumor weight and volume
same,MRP7 protein localization in plasma membranes,[13],no alteration of MRP7 protein localization
same,increase of intracellular accumulation of [^3H]-paclitaxel,[14],3.3 fold
same,intracellular [^3H]-mitoxantrone levels,[15],elevated intracellular [^3H]-mitoxantrone levels
same,accumulation of BODIPY-prazosin,[16],enhanced the accumulation of BODIPY-prazosin
"COc1ccc(CCN(C)CCCC(C#N)(c2ccc(OC)c(OC)c2)C(C)C)cc1OC (centres unmarked) [Verapamil, verapamil]",intracellular levels of [^3H]-paclitaxel,[8],Neither sildenafil nor verapamil altered the intracellular levels
"CC[C@]1(O)C[C@H]2CN(CCc3c([nH]c4ccccc34)[C@@](C(=O)OC)(c3cc4c(cc3OC)N(C=O)[C@H]3[C@@](O)(C(=O)OC)[C@H](OC(C)=O)[C@]5(CC)C=CCN6CC[C@]43[C@@H]65)C2)C1 [Vincristine, vincristine]",IC50 at 68 h,[17],10.6 ± 2.2 nM
same,"fold reversal, vincristine",[18],(1.00)
same,IC50 at 68 h,[19],170000 ± 12900 nM
same,"fold reversal, vincristine",[20],(1.00)
same,"fold reversal, vincristine",[5]; HEK293/pcDNA3.1 (Table 6),(1.00)
same,"fold reversal, vincristine",[5]; HEK293/pcDNA3.1,(1.00)
